Experimental data published in ChEMBL document CHEMBL4387741, “Optimization of novel reversible Bruton's tyrosine kinase inhibitors identified using Tethering-fragment-based screens” (Bioorg Med Chem, 2019).

Legend:
[1] = molecular target: Mast/stem cell growth factor receptor Kit (Homo sapiens) (UniProt P10721); test: Inhibition of wild-type human partial length KIT (I571 to D952 residues) expressed in bacterial expression system at 1 uM by Kinomescan method relative to control
[2] = molecular target: RAC-gamma serine/threonine-protein kinase (Homo sapiens) (UniProt Q9Y243); test: Inhibition of wild-type human partial length AKT3 expressed in bacterial expression system at 1 uM by Kinomescan method relative to control
[3] = molecular target: Tyrosine-protein kinase Fes/Fps (Homo sapiens) (UniProt P07332); test: Inhibition of wild-type human partial length FES (I527 to R822 residues) expressed in bacterial expression system at 1 uM by Kinomescan method relative to control
[4] = molecular target: Glycogen synthase kinase-3 alpha (Homo sapiens) (UniProt P49840); test: Inhibition of wild-type human full length GSK3A (M1 to S483 residues) expressed in bacterial expression system at 1 uM by Kinomescan method relative to control
[5] = molecular target: Serine/threonine-protein kinase SBK1 (Homo sapiens) (UniProt Q52WX2); test: Inhibition of wild-type human partial length SBK1 (P23 to P348 residues) expressed in mammalian expression system at 1 uM by Kinomescan method relative to control
[6] = molecular target: Serine/threonine-protein kinase PLK4 (Homo sapiens) (UniProt O00444); test: Inhibition of wild-type human partial length PLK4 (M1 to S273 residues) expressed in mammalian expression system at 1 uM by Kinomescan method relative to control
[7] = molecular target: Rhodopsin kinase GRK7 (Homo sapiens) (UniProt Q8WTQ7); test: Inhibition of wild-type human full length GRK7 (M1 to L553 residues) expressed in mammalian expression system at 1 uM by Kinomescan method relative to control
[8] = molecular target: Proto-oncogene tyrosine-protein kinase Src (Homo sapiens) (UniProt P12931); test: Inhibition of wild-type human partial length SRC (L240 to L536 residues) expressed in bacterial expression system at 1 uM by Kinomescan method relative to control
[9] = molecular target: Serine/threonine-protein kinase MAK (Homo sapiens) (UniProt P20794); test: Inhibition of wild-type human partial length MAK (M1 to P314 residues) expressed in bacterial expression system at 1 uM by Kinomescan method relative to control
[10] = molecular target: Aurora kinase B (Homo sapiens) (UniProt Q96GD4); test: Inhibition of wild-type human partial length AURKB (D25 to A303 residues) expressed in mammalian expression system at 1 uM by Kinomescan method relative to control
[11] = molecular target: Serine/threonine-protein kinase NLK (Homo sapiens) (UniProt Q9UBE8); test: Inhibition of wild-type human full length NLK (M13 to E527 residues) expressed in bacterial expression system at 1 uM by Kinomescan method relative to control
[12] = molecular target: STE20-like serine/threonine-protein kinase (Homo sapiens) (UniProt Q9H2G2); test: Inhibition of wild-type human partial length SLK (S14 to A307 residues) expressed in bacterial expression system at 1 uM by Kinomescan method relative to control
[13] = molecular target: Rhodopsin kinase GRK1 (Homo sapiens) (UniProt Q15835); test: Inhibition of wild-type human full length GRK1 (M1 to S563 residues) expressed in mammalian expression system at 1 uM by Kinomescan method relative to control
[14] = molecular target: Activin receptor type-2A (Homo sapiens) (UniProt P27037); test: Inhibition of wild-type human ACVR2A (V171 to T499 residues) expressed in bacterial expression system at 10 uM by Kinomescan method relative to control
[15] = system: Tyrosine-protein kinase ABL1 (Homo sapiens), P00519 [Y253F]; test: Inhibition of human phosphorylated ABL1 Y253F mutant (S229 to K512 residues) expressed in mammalian expression system at 10 uM by Kinomescan method relative to control
[16] = molecular target: Ribosomal protein S6 kinase alpha-2 (Homo sapiens) (UniProt Q15349); test: Inhibition of wild-type human partial length C-terminal RSK3 kinase domain 2 (V403 to K700 residues) expressed in bacterial expression system at 10 uM by Kinomescan method relative to control
[17] = molecular target: Myosin light chain kinase (Homo sapiens) (UniProt Q32MK0); test: Inhibition of wild-type human partial length MLCK (D488 to K800 residues) expressed in bacterial expression system at 10 uM by Kinomescan method relative to control
[18] = molecular target: Mitogen-activated protein kinase kinase kinase 20 (Homo sapiens) (UniProt Q9NYL2); test: Inhibition of wild-type human partial length ZAK (M1 to L331 residues) expressed in bacterial expression system at 10 uM by Kinomescan method relative to control
[19] = molecular target: Serine/threonine-protein kinase RIO1 (Homo sapiens) (UniProt Q9BRS2); test: Inhibition of wild-type human full length RIOK1 (M1 to K568 residues) expressed in bacterial expression system at 10 uM by Kinomescan method relative to control
[20] = molecular target: Mast/stem cell growth factor receptor Kit (Homo sapiens) (UniProt P10721); test: Inhibition of wild-type human partial length KIT (I571 to D952 residues) expressed in bacterial expression system at 10 uM by Kinomescan method relative to control
[21] = molecular target: Ribosomal protein S6 kinase alpha-4 (Homo sapiens) (UniProt O75676); test: Inhibition of wild-type human partial length N-terminal RPS6KA4 kinase domain 1 expressed in bacterial expression system at 10 uM by Kinomescan method relative to control
[22] = molecular target: Serine/threonine-protein kinase OSR1 (Homo sapiens) (UniProt O95747); test: Inhibition of wild-type human full length OSR1 (M1 to S527 residues) expressed in mammalian expression system at 10 uM by Kinomescan method relative to control
[23] = system: Tyrosine-protein kinase ABL1 (Homo sapiens), P00519 [E255K]; test: Inhibition of human phosphorylated ABL1 E255K mutant (S229 to K512 residues) expressed in mammalian expression system at 10 uM by Kinomescan method relative to control
[24] = molecular target: Dual specificity mitogen-activated protein kinase kinase 3 (Homo sapiens) (UniProt P46734); test: Inhibition of wild-type human full length MEK3 (M1 to S318 residues) expressed in mammalian expression system at 10 uM by Kinomescan method relative to control
[25] = molecular target: Serine/threonine-protein kinase PLK1 (Homo sapiens) (UniProt P53350); test: Inhibition of wild-type human partial length PLK1 (A33 to F325 residues) expressed in mammalian expression system at 10 uM by Kinomescan method relative to control
[26] = molecular target: Serine/threonine-protein kinase tousled-like 1 (Homo sapiens) (UniProt Q9UKI8); test: Inhibition of wild-type human partial length TLK1 (K447 to A754 residues) expressed in bacterial expression system at 10 uM by Kinomescan method relative to control
[27] = molecular target: Rhodopsin kinase GRK7 (Homo sapiens) (UniProt Q8WTQ7); test: Inhibition of wild-type human full length GRK7 (M1 to L553 residues) expressed in mammalian expression system at 10 uM by Kinomescan method relative to control
[28] = molecular target: NT-3 growth factor receptor (Homo sapiens) (UniProt Q16288); test: Inhibition of wild-type human partial length TRKC (Q531 to G825 residues) expressed in mammalian expression system at 10 uM by Kinomescan method relative to control

Chain of Rhodopsin kinase GRK7 (Homo sapiens) (Q8WTQ7 whole entry, the tested form may be a part): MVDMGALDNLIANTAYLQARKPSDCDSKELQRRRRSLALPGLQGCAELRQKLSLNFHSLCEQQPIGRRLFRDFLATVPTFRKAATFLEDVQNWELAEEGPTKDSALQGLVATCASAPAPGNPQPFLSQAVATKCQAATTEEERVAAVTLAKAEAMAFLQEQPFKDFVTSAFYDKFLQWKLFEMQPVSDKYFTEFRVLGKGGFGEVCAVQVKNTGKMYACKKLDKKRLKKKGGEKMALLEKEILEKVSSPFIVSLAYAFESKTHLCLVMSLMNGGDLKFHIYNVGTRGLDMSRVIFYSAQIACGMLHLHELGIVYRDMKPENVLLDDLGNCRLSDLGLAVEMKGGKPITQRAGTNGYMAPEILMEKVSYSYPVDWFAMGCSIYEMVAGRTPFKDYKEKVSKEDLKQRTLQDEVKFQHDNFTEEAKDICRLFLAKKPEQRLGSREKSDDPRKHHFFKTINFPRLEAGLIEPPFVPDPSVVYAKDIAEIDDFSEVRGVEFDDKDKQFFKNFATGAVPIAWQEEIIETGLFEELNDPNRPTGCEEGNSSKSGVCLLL
Chain of Mast/stem cell growth factor receptor Kit (Homo sapiens) (P10721 whole entry, the tested form may be a part): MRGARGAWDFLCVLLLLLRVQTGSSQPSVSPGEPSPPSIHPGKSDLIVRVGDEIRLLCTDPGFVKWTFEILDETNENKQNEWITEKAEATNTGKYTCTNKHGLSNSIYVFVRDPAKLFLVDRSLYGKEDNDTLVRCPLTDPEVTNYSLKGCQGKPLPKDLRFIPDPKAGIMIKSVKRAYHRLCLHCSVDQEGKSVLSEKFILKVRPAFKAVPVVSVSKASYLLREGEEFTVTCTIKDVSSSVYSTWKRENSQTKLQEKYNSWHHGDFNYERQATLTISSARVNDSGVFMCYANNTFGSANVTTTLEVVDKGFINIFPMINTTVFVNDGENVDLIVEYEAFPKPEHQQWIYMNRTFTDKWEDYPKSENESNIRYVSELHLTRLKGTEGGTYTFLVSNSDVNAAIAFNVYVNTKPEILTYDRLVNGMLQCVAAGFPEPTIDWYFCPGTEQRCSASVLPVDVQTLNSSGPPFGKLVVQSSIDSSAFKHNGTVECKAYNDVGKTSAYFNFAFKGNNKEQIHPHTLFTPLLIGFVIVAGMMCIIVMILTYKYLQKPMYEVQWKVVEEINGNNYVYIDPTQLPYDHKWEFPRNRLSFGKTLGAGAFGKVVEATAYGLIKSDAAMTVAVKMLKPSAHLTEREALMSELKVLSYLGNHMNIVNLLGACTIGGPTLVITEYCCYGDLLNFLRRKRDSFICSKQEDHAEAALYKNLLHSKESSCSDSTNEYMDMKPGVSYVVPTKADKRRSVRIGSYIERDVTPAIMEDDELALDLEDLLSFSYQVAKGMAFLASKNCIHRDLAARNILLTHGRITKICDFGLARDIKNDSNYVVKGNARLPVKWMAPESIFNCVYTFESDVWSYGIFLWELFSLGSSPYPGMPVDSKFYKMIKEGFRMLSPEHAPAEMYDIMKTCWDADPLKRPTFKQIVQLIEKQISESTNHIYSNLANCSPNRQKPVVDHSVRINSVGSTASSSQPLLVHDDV
Chain of RAC-gamma serine/threonine-protein kinase (Homo sapiens) (Q9Y243 whole entry, the tested form may be a part): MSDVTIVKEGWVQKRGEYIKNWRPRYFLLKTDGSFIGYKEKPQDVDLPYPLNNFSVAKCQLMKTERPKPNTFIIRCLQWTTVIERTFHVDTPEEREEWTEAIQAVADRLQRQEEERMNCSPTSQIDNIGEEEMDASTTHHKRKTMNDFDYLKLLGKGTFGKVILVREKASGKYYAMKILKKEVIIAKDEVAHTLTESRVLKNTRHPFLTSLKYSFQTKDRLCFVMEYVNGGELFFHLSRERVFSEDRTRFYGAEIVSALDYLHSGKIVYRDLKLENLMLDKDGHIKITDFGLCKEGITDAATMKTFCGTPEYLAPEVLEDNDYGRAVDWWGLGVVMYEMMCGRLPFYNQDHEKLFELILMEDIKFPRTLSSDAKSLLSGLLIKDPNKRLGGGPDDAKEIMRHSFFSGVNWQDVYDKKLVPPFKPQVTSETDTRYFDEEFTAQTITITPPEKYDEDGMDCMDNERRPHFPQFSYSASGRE
Chain of Mitogen-activated protein kinase kinase kinase 20 (Homo sapiens) (Q9NYL2 2-800 limits assumed): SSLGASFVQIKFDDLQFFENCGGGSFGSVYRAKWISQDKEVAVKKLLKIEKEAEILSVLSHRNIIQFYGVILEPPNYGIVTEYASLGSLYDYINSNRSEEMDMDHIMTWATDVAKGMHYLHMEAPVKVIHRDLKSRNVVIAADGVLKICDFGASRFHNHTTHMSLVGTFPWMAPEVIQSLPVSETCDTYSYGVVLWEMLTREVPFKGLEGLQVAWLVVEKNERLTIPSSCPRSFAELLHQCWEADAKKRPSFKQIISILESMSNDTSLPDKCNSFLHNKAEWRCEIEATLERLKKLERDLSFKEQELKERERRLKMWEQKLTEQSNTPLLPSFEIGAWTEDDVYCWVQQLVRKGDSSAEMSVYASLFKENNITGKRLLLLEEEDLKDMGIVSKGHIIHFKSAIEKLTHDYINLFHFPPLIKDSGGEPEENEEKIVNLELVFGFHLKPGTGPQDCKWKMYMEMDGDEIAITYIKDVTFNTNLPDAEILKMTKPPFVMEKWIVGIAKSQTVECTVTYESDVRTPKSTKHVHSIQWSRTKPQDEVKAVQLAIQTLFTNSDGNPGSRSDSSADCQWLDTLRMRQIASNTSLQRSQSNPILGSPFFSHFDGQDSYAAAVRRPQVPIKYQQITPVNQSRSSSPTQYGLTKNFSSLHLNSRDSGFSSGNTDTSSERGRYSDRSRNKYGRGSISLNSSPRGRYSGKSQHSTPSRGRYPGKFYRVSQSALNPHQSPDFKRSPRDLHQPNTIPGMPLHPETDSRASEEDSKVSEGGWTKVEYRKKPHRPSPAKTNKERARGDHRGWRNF
Chain of Tyrosine-protein kinase Fes/Fps (Homo sapiens) (P07332 whole entry, the tested form may be a part): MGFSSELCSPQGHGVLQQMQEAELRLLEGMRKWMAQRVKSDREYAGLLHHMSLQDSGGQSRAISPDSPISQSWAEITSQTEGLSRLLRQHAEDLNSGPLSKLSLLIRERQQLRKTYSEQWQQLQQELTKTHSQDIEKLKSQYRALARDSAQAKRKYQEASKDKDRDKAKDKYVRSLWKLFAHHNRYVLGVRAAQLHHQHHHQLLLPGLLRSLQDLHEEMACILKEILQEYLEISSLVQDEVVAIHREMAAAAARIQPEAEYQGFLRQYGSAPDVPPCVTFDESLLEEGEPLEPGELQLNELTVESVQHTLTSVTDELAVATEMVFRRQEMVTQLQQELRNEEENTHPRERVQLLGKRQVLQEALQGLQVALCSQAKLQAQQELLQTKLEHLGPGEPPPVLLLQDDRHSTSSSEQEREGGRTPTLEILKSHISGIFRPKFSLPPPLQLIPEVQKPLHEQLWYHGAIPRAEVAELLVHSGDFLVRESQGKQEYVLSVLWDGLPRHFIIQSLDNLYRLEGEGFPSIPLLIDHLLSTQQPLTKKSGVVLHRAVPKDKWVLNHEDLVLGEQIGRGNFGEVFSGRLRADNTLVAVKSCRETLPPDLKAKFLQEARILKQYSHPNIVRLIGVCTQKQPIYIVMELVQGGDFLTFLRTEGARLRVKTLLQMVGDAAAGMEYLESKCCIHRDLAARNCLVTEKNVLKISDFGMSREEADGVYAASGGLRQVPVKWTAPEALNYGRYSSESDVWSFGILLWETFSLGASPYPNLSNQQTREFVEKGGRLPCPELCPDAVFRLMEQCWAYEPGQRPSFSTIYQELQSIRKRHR
Chain of Myosin light chain kinase (Homo sapiens) (Q32MK0 whole entry, the tested form may be a part): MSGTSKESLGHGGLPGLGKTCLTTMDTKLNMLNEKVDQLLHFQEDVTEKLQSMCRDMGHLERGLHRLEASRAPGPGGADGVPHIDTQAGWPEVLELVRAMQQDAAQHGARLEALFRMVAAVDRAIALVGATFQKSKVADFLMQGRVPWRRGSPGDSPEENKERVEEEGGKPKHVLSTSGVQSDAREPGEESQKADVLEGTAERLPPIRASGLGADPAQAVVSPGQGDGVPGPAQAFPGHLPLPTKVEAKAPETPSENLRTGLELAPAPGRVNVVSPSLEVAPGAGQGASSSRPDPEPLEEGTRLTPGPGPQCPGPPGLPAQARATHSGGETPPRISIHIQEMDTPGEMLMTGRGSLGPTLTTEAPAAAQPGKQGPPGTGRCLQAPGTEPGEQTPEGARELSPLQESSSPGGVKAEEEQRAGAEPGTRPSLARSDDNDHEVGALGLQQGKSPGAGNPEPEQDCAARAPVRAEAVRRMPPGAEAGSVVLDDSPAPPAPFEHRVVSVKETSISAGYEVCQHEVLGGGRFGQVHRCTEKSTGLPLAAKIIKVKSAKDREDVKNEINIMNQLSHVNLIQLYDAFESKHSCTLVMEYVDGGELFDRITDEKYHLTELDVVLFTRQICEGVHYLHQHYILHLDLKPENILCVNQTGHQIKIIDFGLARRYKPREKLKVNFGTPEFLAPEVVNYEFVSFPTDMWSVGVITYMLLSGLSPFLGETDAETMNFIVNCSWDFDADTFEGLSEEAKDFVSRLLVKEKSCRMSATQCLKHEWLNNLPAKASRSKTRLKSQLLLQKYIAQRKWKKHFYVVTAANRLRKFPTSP
Chain of Serine/threonine-protein kinase OSR1 (Homo sapiens) (O95747 2-527 limits assumed): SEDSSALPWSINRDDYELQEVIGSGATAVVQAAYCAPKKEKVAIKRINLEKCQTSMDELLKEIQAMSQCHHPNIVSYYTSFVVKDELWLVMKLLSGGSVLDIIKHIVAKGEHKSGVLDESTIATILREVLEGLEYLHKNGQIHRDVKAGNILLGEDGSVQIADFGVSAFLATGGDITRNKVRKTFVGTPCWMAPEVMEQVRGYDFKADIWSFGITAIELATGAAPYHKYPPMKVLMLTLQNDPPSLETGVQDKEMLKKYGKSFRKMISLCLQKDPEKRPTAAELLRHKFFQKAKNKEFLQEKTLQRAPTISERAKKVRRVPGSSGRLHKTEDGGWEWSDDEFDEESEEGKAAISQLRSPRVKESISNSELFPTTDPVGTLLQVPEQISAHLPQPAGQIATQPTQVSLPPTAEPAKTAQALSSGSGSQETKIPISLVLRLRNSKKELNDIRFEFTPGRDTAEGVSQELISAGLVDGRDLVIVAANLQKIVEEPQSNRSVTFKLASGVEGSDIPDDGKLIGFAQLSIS

O=C(Nc1cccc([C@@H]2CN(c3ncnc4[nH]ccc34)CCN2CCO)c1)Nc1c(F)cccc1N1CCCC1
inhibition [1]: 73% | inhibition [2]: 100% | inhibition [3]: 100% | inhibition [4]: 100% | inhibition [5]: 69% | inhibition [6]: 6.3% | inhibition [7]: 99% | inhibition [8]: 71% | inhibition [9]: 94% | inhibition [10]: 4.4% | inhibition [11]: 100% | inhibition [12]: 88% | inhibition [13]: 78%

O=C(Nc1cccc([C@H]2CCCN(c3ncnc4[nH]ccc34)C2)c1)Nc1ccccc1N1CCCC1
inhibition [14]: 100% | inhibition [15]: 74% | inhibition [16]: 66% | inhibition [17]: 100% | inhibition [18]: 100% | inhibition [19]: 0% | inhibition [20]: 0.25% | inhibition [21]: 77% | inhibition [22]: 81% | inhibition [23]: 35% | inhibition [24]: 54% | inhibition [25]: 72% | inhibition [26]: 78% | inhibition [27]: 80% | inhibition [28]: 36%
